Measurements reported in patent US20140171320A1, “Composition Comprising A Pesticide And An Alkoxylate Of 2-Isopropyl-5-Methylhexane-1-Amine” (BASF SE, priority 2012, published 2014).

How the values were obtained:
[1] = test system: Setaria verticillata (SETVE); assay: Greenhouse herbicidal activity of glyphosate SL formulation with amine alkoxylate adjuvant on Setaria; type: in vivo; conditions: after 21 days; 140 g glyphosate-IPA salt/ha and 300 g amine alkoxylate/ha; score vs untreated plants
Method: (§1) For the greenhouse tests, winter wheat (cultivar Cubus), soybean (cultivar Sultana), and maize (cultivar Amadeo) was sown or potted in loamy sandy soil to a depth of 1-2 cm. When the plants had reached a growth height of 10 to 25 cm (i.e., around 10 to 21 days after sowing), the spray mixtures were applied to the plants in a spraying cabin.
(§2) A concentrated formulation comprising glyphosate isopropylammonium in solution in water and amine alkoxylate from Example 2 was diluted with deionized water and applied at a water application rate of 375 l/ha (140 g of glyphosate-IPA salt/ha and 300 g of amine alkoxylate/ha). The temperatures in the experimental period, which lasted for 3 weeks, were between 18-35° C. During this time, the experimental plants received optimum watering, with nutrients being supplied via the water used for watering.
(§3) The herbicidal activity was evaluated by awarding scores to the treated plants in comparison to the untreated control plants (Table 2). The evaluation scale ranges from 0% to 100% activity. 100% activity means the complete death at least of those parts of the plant that are above ground. Conversely, 0% activity means that there were no differences between treated and untreated plants.
(§4) The experiments were carried out as in Example 3, on Sorghum halepense (SORHA) and Setaria verticillata (SETVE). The application rate was 140 g of glyphosate-IPA salt/ha and 300 g of amine alkoxylate/ha.

[2] = test system: Sorghum halepense (SORHA); assay: Greenhouse herbicidal activity of glyphosate SL formulation with amine alkoxylate adjuvant on Sorghum; type: in vivo; conditions: after 21 days; 140 g glyphosate-IPA salt/ha and 300 g amine alkoxylate/ha; score vs untreated plants
Method: as §1, §2, §3, §4

[3] = test system: winter wheat (cultivar Cubus); assay: Greenhouse herbicidal activity of glyphosate SL formulation with amine alkoxylate adjuvant on winter wheat; type: in vivo; conditions: after 21 days; 140 g glyphosate-IPA salt/ha and 300 g amine alkoxylate/ha, 375 l/ha water; score vs untreated plants
Method: as §1, §2, §3

[4] = test system: soybean (cultivar Sultana); assay: Greenhouse herbicidal activity of glyphosate SL formulation with amine alkoxylate adjuvant on soybean; type: in vivo; conditions: after 21 days; 140 g glyphosate-IPA salt/ha and 300 g amine alkoxylate/ha, 375 l/ha water; score vs untreated plants
Method: as §1, §2, §3

maize (cultivar Amadeo) = assay: Greenhouse herbicidal activity of glyphosate SL formulation with amine alkoxylate adjuvant on maize; type: in vivo; conditions: after 21 days; 140 g glyphosate-IPA salt/ha and 300 g amine alkoxylate/ha, 375 l/ha water; score vs untreated plants
Method: as §1, §2, §3

[5] = Storage stability of aqueous glyphosate formulation; type: physicochemical; conditions: 41.5% by weight glyphosate-isopropylammonium salt and 15.5% by weight amine alkoxylate, −5 to +55° C.

| Storage stability [5] | Molecule | Activity [%] SETARIA [1] [%] | Activity [%] SORHA [2] [%] | Activity [%] Winter wheat [3] [%] | Activity [%] Soybean [4] [%] | Activity [%] Maize (maize (cultivar Amadeo)) [%] |
| --- | --- | --- | --- | --- | --- | --- |
|  | 2-propylheptylamine-10 EO | 88 | 97 | 55 | 42 | 80 |
| storage stable for at least two weeks | 2-Isopropyl-5-methylhexane-1-amine-10 EO | 78 | 93 | 62 | 48 | 80 |
|  | CC(C)N.O=C(O)CNCP(=O)(O)O [—, glyphosate isopropylammonium] | 58 | 33 | 18 | 20 | 32 |
